Experimental data taken from patent US8791102B2, “Acetanilide sphingosine-1-phosphate receptor antagonists” (Exelixis, Inc., priority 2008, dated 2014).

target: T1, human S1P1 receptors (Homo sapiens, UniProt P21453); assay: S1P1R antagonist assay (fluorescent membrane potential dye, cAMP readout); type: cell-based; settings: HEK293 cells expressing human S1P1 receptors and CNG channel; 500 nM NECA; S1P1R agonist 10 nM; 90 minutes; read-out: EC50 or IC50 value
T1 construct: host or cells: HEK293
Text: The S1P1R antagonist assay is a fluorescent membrane potential dye measurement assay, indicative of intracellular cAMP changes due to G protein-coupled receptor activation. HEK293 cells engineered to express human S1P1 receptors and a cyclic nucleotide-gated (CNG) channel are obtained from BD Biosciences, 80300-250. The CNG channels are activated by elevated levels of cAMP, resulting in ion flux and cell membrane depolarization. Membrane depolarization is detected with a membrane potential dye. Stimulation of the cells with 5′-(N-ethylcarboxamido)adenosine (NECA), an A2b receptor agonist (Sigma, E2387), elicits an A2bR-dependent increase in cAMP.
Subsequent exposure of the cells to a S1P1R agonist suppresses the NECA induced increase in cAMP through S1P1R-specific signaling by inhibiting adenylyl cyclase and the formation of cAMP from ATP. The degree to which a test compound overcomes the S1P1R agonist suppression of the NECA induced increase in cAMP is a measure of S1P1R antagonist activity. Antagonist activity is quantified as the IC50 (i.e., the concentration needed to elicited one-half of the maximum response of the test compound) and/or as the EC50 (i.e., the concentration needed to elicited one-half of the NECA induced stimulation).
Day 1: Freshly thawed cells were plated into 384-well plates (Corning, 3683) at a density of 14,000 cells/well in 20 μL, complete media and incubated for 16 hours at 37° C., 5% CO2 and 99% relative humidity. Complete media included Dulbecco's modified Eagle's medium (Invitrogen, 11965-092), 10% Fetal bovine serum (Hyclone, SH30071.03), 250 μg/mL geneticin (Invitrogen, 10131-027), and 1 μg/mL Puromycin (Fluka, 82595).
Day 2: Membrane potential dye (20 μL, BD Biosciences, 341833) was added to each well and the plates were incubated for 2.5 hours at ambient temperature. Test compounds (20 μL) were added to the wells at various concentrations (≦10 μM, 1 to 3 dilutions) in a NECA base solution and incubated for 90 minutes in the presence of the S1P1R agonist {4-((4-phenyl-5-trifluoromethyl-2-thienyl)methoxy)benzyl}-3-azetidinecarboxylic acid (10 nM). The NECA-base solution contained Dulbecco's phosphate-buffered saline (Invitrogen, 14190-136), 2.5% DMSO (Fluka, 41648), 25 μM Ro 20-1724 (Sigma, B8279), and 500 nM NECA).
Assay plates were read with a PerkinElmer EnVision reader (Excitation 350 nm, Emission 590 nm) at time T=0 minutes, before compound addition and at time T=90 minutes. The signal was calculated as the ratio T90/T0. Data was analyzed in ActivityBase XE and graphs showing log of compound concentration (X-axis) vs. % activity (Y-axis) were generated for IC50 determinations. Percent activity was calculated with the following formula: (Signal−Agonist Control Signal)/(NECA Control Signal−Agonist Control Signal)×100.

T1 sequence (P21453 whole entry): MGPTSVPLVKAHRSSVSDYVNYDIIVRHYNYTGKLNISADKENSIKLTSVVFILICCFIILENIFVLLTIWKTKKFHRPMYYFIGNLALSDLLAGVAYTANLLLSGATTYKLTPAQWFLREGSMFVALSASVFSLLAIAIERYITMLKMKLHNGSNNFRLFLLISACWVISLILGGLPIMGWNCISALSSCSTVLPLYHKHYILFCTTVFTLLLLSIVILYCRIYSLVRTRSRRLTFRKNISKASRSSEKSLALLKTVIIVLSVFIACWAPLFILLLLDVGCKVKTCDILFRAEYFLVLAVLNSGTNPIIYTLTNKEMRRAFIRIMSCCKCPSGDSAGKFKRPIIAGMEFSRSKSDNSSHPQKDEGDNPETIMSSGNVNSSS

IC50, > 1000 nM:
CN1CCCC1CC1CCCCN1CC(=O)N[C@@H](COCc1ccccc1)C(=O)Nc1ccc(Oc2ccc(F)cc2)cc1 (stereo in doubt) [Compound 113, (2S)-3-(benzyloxy)-N-(4-(4-fluorophenoxy)phenyl)-2-(2-(2-(((S)-1-methylpyrrolidin-2-yl)methyl)piperidin-1-yl)acetamido)propanamide]
O=C(NC(COCc1ccccc1)C(=O)Nc1ccc(Oc2ccccc2)cc1)C(=O)c1ccco1 (stereo not shown) [Compound 14, 3-(benzyloxy)-2-(2-(furan-2-yl)-2-oxoacetamido)-N-(4-phenoxyphenyl)propanamide]
O=C(CCCCCN1C(=O)C=CC1=O)NC(COCc1ccccc1)C(=O)Nc1ccc(Oc2ccccc2)cc1 (stereo not shown) [Compound 15, N-(3-(benzyloxy)-1-oxo-1-(4-phenoxyphenylamino)propan-2-yl)-6-(2,5-dioxo-2,5-dihydro-1H-pyrrol-1-yl)hexanamide]
CC(=O)Oc1ccc(C(=O)NC(COCc2ccccc2)C(=O)Nc2ccc(Oc3ccccc3)cc2)cc1 (stereo not shown) [Compound 17, 4-(3-(benzyloxy)-1-oxo-1-(4-phenoxyphenylamino)propan-2-ylcarbamoyl)phenyl acetate]
Cc1cncc(C(=O)NC(COCc2ccccc2)C(=O)Nc2ccc(Oc3ccccc3)cc2)c1 (stereo not shown) [Compound 18, N-(3-(benzyloxy)-1-oxo-1-(4-phenoxyphenylamino)propan-2-yl)-5-methylnicotinamide]
CS(=O)(=O)CC(=O)NC(COCc1ccccc1)C(=O)Nc1ccc(Oc2ccccc2)cc1 (stereo not shown) [Compound 19, 3-(benzyloxy)-2-(2-(methylsulfonyl)acetamido)-N-(4-phenoxyphenyl)propanamide]
O=C(NC(COCc1ccccc1)C(=O)Nc1ccc(Oc2ccccc2)cc1)c1ccc2[nH]ccc2c1 (stereo not shown) [Compound 20, N-(3-(benzyloxy)-1-oxo-1-(4-phenoxyphenylamino)propan-2-yl)-1H-indole-5-carboxamide]
O=C(NC(COCc1ccccc1)C(=O)Nc1ccc(Oc2ccccc2)cc1)c1cc(F)ccc1Br (stereo not shown) [Compound 21, N-(3-(benzyloxy)-1-oxo-1-(4-phenoxyphenylamino)propan-2-yl)-2-bromo-5-fluorobenzamide]
O=C(Nc1ccc(Oc2ccccc2)cc1)C(COCc1ccccc1)NC(=O)[C@H]1CCCO1 (stereo partly drawn) [Compound 23, (2R)—N-(3-(benzyloxy)-1-oxo-1-(4-phenoxyphenylamino)propan-2-yl)tetrahydrofuran-2-carboxamide]
O=C(Nc1ccc(Oc2ccccc2)cc1)C(COCc1ccccc1)NC(=O)[C@H](O)c1ccccc1Cl (stereo partly drawn) [Compound 24, 3-(benzyloxy)-2-((R)-2-(2-chlorophenyl)-2-hydroxyacetamido)-N-(4-phenoxyphenyl)propanamide]
CC(=O)O[C@@H](C)C(=O)NC(COCc1ccccc1)C(=O)Nc1ccc(Oc2ccccc2)cc1 (stereo partly drawn) [Compound 25, (2S)-1-(3-(benzyloxy)-1-oxo-1-(4-phenoxyphenylamino)propan-2-ylamino)-1-oxopropan-2-yl acetate]
O=C(COc1ccccc1O)NC(COCc1ccccc1)C(=O)Nc1ccc(Oc2ccccc2)cc1 (stereo not shown) [Compound 26, 3-(benzyloxy)-2-(2-(2-hydroxyphenoxy)acetamido)-N-(4-phenoxyphenyl)propanamide]
O=C(Nc1ccc(Oc2ccccc2)cc1)C(COCc1ccccc1)NC(=O)[C@H](O)Cc1ccccc1 (stereo partly drawn) [Compound 27, 3-(benzyloxy)-2-((R)-2-hydroxy-3-phenylpropanamido)-N-(4-phenoxyphenyl)propanamide]
CSc1ncccc1C(=O)NC(COCc1ccccc1)C(=O)Nc1ccc(Oc2ccccc2)cc1 (stereo not shown) [Compound 28, N-(3-(benzyloxy)-1-oxo-1-(4-phenoxyphenylamino)propan-2-yl)-2-(methylthio)nicotinamide]
O=C(NC(COCc1ccccc1)C(=O)Nc1ccc(Oc2ccccc2)cc1)C1CC(=O)N(Cc2ccc(Cl)cc2)C1 (stereo not shown) [Compound 29, N-(3-(benzyloxy)-1-oxo-1-(4-phenoxyphenylamino)propan-2-yl)-1-(4-chlorobenzyl)-5-oxopyrrolidine-3-carboxamide]

IC50, ≤ 300 nM:
O=C(Cc1cnc[nH]1)N[C@@H](CCCc1ccccc1)C(=O)Nc1ccc(Oc2ccccc2)cc1 [Compound 1, (S)-2-(2-(1H-imidazol-5-yl)acetamido)-5-phenyl-N-(4-phenoxyphenyl)pentanamide]
O=C(Nc1ccc(Oc2ccc(F)cc2)cc1)[C@@H]1C[C@@H](Cc2ccc(F)cc2Cl)CN1C(=O)Cn1ccnn1 [Compound 2, (2S,4R)-1-(2-(1H-1,2,3-triazol-1-yl)acetyl)-4-(2-chloro-4-fluorobenzyl)-N-(4-(4-fluorophenoxy)phenyl)pyrrolidine-2-carboxamide]
Cc1ccc(C[C@@H]2C[C@@H](C(=O)Nc3ccc(Oc4ccc(F)cc4)cc3)N(C(=O)Cn3ccnn3)C2)cc1 [Compound 3]
Cc1ccc(C[C@@H]2C[C@@H](C(=O)Nc3ccc(Oc4ccc(F)cc4)cc3)N(C(=O)Cn3cncn3)C2)cc1 [Compound 4]
O=C(Nc1ccc(Oc2ccc(F)cc2)cc1)[C@@H]1C[C@@H](Cc2ccc(F)cc2Cl)CN1C(=O)Cn1nccn1 [Compound 5, (2S,4R)-1-(2-(2H-1,2,3-triazol-2-yl)acetyl)-4-(2-chloro-4-fluorobenzyl)-N-(4-(4-fluorophenoxy)phenyl)pyrrolidine-2-carboxamide]
Cc1cc(F)ccc1C[C@@H]1C[C@@H](C(=O)Nc2ccc(Oc3ccc(F)cc3)cc2)N(C(=O)Cn2ccnn2)C1 [Compound 6, (2S,4R)-1-(2-(1H-1,2,3-triazol-1-yl)acetyl)-4-(4-fluoro-2-methylbenzyl)-N-(4-(4-fluorophenoxy)phenyl)pyrrolidine-2-carboxamide]
Cc1cc(F)ccc1C[C@@H]1C[C@@H](C(=O)Nc2ccc(Oc3ccc(F)cc3)cc2)N(C(=O)Cn2nccn2)C1 [Compound 7, (2S,4R)-1-(2-(2H-1,2,3-triazol-2-yl)acetyl)-4-(4-fluoro-2-methylbenzyl)-N-(4-(4-fluorophenoxy)phenyl)pyrrolidine-2-carboxamide]
Cc1cc(F)ccc1C[C@@H]1C[C@@H](C(=O)Nc2ccc(Oc3ccc(F)cc3)cc2)N(C(=O)Cn2cncn2)C1 [Compound 8, (2S,4R)-1-(2-(1H-1,2,4-triazol-1-yl)acetyl)-4-(4-fluoro-2-methylbenzyl)-N-(4-(4-fluorophenoxy)phenyl)pyrrolidine-2-carboxamide]
O=C(Nc1ccc(Oc2ccc(F)cc2)cc1)[C@@H]1C[C@@H](Cc2ccc(F)cc2Cl)CN1C(=O)Cn1cncn1 [Compound 9, (2S,4R)-1-(2-(1H-1,2,4-triazol-1-yl)acetyl)-4-(2-chloro-4-fluorobenzyl)-N-(4-(4-fluorophenoxy)phenyl)pyrrolidine-2-carboxamide]
O=C(Nc1ccc(Oc2ccc(F)cc2)cc1)[C@@H]1C[C@@H](Cc2ccccc2)CN1C(=O)Cn1ccnn1 [Compound 10, (2S,4R)-1-(2-(1H-1,2,3-triazol-1-yl)acetyl)-4-benzyl-N-(4-(4-fluorophenoxy)phenyl)pyrrolidine-2-carboxamide]
Nc1nc(C(F)(F)F)nn1CC(=O)N1C[C@H](Cc2ccccc2)C[C@H]1C(=O)Nc1ccc(Oc2ccc(F)cc2)cc1 [Compound 11, (2S,4R)-1-(2-(5-amino-3-(trifluoromethyl)-1H-1,2,4-triazol-1-yl)acetyl)-4-benzyl-N-(4-(4-fluorophenoxy)phenyl)pyrrolidine-2-carboxamide]

IC50, 300 to 1000 nM:
O=C(Cn1cncn1)N1C[C@H](Cc2ccccc2)C[C@H]1c1nc2cc(Oc3ccc(F)cc3)ccc2[nH]1 [Compound 12, 1-((2S,4R)-4-benzyl-2-(5-(4-fluorophenoxy)-1H-benzo[d]imidazol-2-yl)pyrrolidin-1-yl)-2-(1H-1,2,4-triazol-1-yl)ethanone]
O=C(CC(F)(F)F)NC(COCc1ccccc1)C(=O)Nc1ccc(Oc2ccccc2)cc1 (stereo not shown) [Compound 22, N-(3-(benzyloxy)-1-oxo-1-(4-phenoxyphenylamino)propan-2-yl)-3,3,3-trifluoropropanamide]
